ChEMBL document CHEMBL1128717, “2,4-Diaminopyrido[3,2-d]pyrimidine inhibitors of dihydrofolate reductase from Pneumocystis carinii and Toxoplasma gondii” (J Med Chem, 1995)

Tests used:
Dihydrofolate reductase [1] = biological target: T1, Dihydrofolate reductase (Pneumocystis carinii, UniProt P16184)
T1 sequence (P16184 whole entry): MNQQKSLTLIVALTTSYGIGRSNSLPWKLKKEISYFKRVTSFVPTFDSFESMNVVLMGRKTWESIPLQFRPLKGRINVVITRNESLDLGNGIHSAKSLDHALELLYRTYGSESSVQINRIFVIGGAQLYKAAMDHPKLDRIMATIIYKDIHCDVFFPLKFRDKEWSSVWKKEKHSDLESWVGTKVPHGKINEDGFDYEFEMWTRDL
Description: Concentration inhibiting Pneumocystis carinii dihydrofolate reductase

Dihydrofolate reductase [2] = biological target: T2, Dihydrofolate reductase (Rattus norvegicus, UniProt Q920D2)
T2 sequence (Q920D2 whole entry): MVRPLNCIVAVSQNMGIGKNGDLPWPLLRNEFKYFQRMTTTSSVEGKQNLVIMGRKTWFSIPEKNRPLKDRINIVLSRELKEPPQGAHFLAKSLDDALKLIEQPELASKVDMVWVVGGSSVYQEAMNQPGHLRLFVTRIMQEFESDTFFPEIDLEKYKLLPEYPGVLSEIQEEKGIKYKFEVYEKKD
Description: Concentration inhibiting rat liver dihydrofolate reductase.

[3] = biological target: T3, Bifunctional dihydrofolate reductase-thymidylate synthase (Toxoplasma gondii, UniProt Q07422); assay: Concentration inhibiting Toxoplasma gondii dihydrofolate reductase
T3 sequence (Q07422 whole entry): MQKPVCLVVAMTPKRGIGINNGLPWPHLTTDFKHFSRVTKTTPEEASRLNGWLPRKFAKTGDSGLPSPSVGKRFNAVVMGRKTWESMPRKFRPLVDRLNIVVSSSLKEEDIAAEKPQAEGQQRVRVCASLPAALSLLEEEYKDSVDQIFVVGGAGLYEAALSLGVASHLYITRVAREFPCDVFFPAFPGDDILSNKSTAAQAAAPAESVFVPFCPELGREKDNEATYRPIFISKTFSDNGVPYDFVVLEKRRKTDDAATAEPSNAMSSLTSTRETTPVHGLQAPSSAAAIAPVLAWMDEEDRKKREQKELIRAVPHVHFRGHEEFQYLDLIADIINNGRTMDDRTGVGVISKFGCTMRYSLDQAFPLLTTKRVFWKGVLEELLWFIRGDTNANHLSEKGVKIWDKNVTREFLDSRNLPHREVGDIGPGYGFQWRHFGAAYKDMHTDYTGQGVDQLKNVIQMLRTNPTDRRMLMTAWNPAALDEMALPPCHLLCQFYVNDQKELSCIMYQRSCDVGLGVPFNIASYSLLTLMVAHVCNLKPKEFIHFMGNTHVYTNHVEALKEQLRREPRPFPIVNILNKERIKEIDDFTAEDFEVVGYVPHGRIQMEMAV

Compound | IC50 (Dihydrofolate reductase [1]) [nM] | IC50 (Dihydrofolate reductase [2]) [nM] | IC50 [3] [nM]
COc1ccc(OC)c(NCc2ccc3nc(N)nc(N)c3n2)c1 | 1400 | 430 | 100
COc1cc(N(C)Cc2ccc3nc(N)nc(N)c3n2)cc(OC)c1OC | 130 | 26 | 4.7
COc1cc(NCc2ccc3nc(N)nc(N)c3n2)cc(OC)c1OC | 2600 |  | 82

Continued, in another order:

IC50 (Dihydrofolate reductase [1]) [nM] | IC50 (Dihydrofolate reductase [2]) [nM] | Compound | IC50 [3] [nM]
2100 | 67 | CN(Cc1ccc2nc(N)nc(N)c2n1)c1cccc(Cl)c1 | 20
22 | 32 | CN(Cc1ccc2nc(N)nc(N)c2n1)c1ccc(Cl)c(Cl)c1 | 98
62 | 22 | CN(Cc1ccc2nc(N)nc(N)c2n1)c1ccc(Cl)cc1 | 15
